Measured values: publication PMC4959447 (Journal of medicinal chemistry, 2015)
pEC50: −log10 of the molar value. Values joined by “and” are separate entries in the source; they are usually repeats but may differ in a detail not shown here. Equal entries are not always repeated. Where two headings read alike, the source gives them in different places.

Assays:
leukemia cell lines = test: NCI-60 five-dose screen, leukemia sub-panel; format: cell-based; conditions: Homo sapiens, read-out: GI50 values in the range
[1] = test system: panel of 60 human cancer cell lines; test: NCI-60 five-dose screen, whole panel; format: cell-based
[2] = test system: primary AML cell specimen AML03; test: Primary AML cell assay; format: cell-based; conditions: Homo sapiens, 24 h
[3] = test system: primary AML cell specimens; test: Primary AML cell assay, specimens taken together; format: cell-based; conditions: Homo sapiens
M9-ENL1 cells = test: M9-ENL1 cell assay; format: cell-based; conditions: M9-ENL1, 24 h
[4] = test system: rat 9L-SF gliosarcoma cells; test: Colony formation assay with 9L-SF cells

`C=C1C(=O)O[C@H]2[C@H]1CC/C(COC(=O)NCCCCNC(=O)OC/C1=C/CC[C@@]3(C)O[C@H]3[C@H]3OC(=O)C(=C)[C@@H]3CC1)=C\CC[C@@]1(C)O[C@@H]21` [7b, bis-E-(((1aR,7aS,10aS,10bS)-1a-Methyl-8-methylene-9-oxo-1a,2,3,6,7,7a,8,9,10a,10b-decahydrooxireno[2',3':9,10]cyclodeca[1,2-b]furan-5-yl)methyl)butane-1,4-diyldicarbamate] was tested, and the GI50 (leukemia cell lines) was 250 to 780 nM.

Work on `C=C1C(=O)O[C@H]2[C@H]1CC/C(COC(=O)NCCCCCNC(=O)OC/C1=C/CC[C@@]3(C)O[C@H]3[C@H]3OC(=O)C(=C)[C@@H]3CC1)=C\CC[C@@]1(C)O[C@@H]21` [7c, bis-E-(((1aR,7aS,10aS,10bS)-1a-Methyl-8-methylene-9-oxo-1a,2,3,6,7,7a,8,9,10a,10b-decahydrooxireno[2',3':9,10]cyclodeca[1,2-b]furan-5-yl)methyl)pentane-1,5-diyldicarbamate] yielded a GI50 (leukemia cell lines) of 250 to 780 nM.

Work on `C=C1C(=O)O[C@H]2[C@H]1CC/C(COC(=O)NCCCCCCCCNC(=O)OC/C1=C/CC[C@@]3(C)O[C@H]3[C@H]3OC(=O)C(=C)[C@@H]3CC1)=C\CC[C@@]1(C)O[C@@H]21` [7f, bis-E-(((1aR,7aS,10aS,10bS)-1a-Methyl-8-methylene-9-oxo-1a,2,3,6,7,7a,8,9,10a,10b-decahydrooxireno[2',3':9,10]cyclodeca[1,2-b]furan-5-yl)methyl)octane-1,8-diyldicarbamate] yielded a GI50 (leukemia cell lines) of 250 to 780 nM, a GI50 ([1]; 60 cell, read-out: GI50 values in the nanomolar range, against most of the solid tumor cell lines in the 60 cell panel) of 160 to 999 nM and a GI50 ([1]; read-out: GI50 values, against more than 50% of the cancer cell lines in the panel) of less than 500 nM.

`C=C1C(=O)O[C@H]2[C@H]1CC/C(COC(=O)OCCCCCOC(=O)OC/C1=C/CC[C@@]3(C)O[C@H]3[C@H]3OC(=O)C(=C)[C@@H]3CC1)=C\CC[C@@]1(C)O[C@@H]21` [7j, bis-E-(((1aR,7aS,10aS,10bS)-1a-Methyl-8-methylene-9-oxo-1a,2,3,6,7,7a,8,9,10a,10b-decahydrooxireno[2',3':9,10]cyclodeca[1,2-b]furan-5-yl)methyl)pentane-1,5-diyldicarbonate] was tested, and the pEC50 [2] was 5.92.

`C=C1C(=O)O[C@@H]2[C@H]3O[C@]3(C)CC/C=C(\C)CC[C@@H]12` [compound 1, parthenolide] was tested, and the pEC50 [2] was 5.30, the pEC50 ([3]; AML01, read-out: EC50 (range)) was 5.10 to 5.60 and the pEC50 ([3]; read-out: EC50 (range)) was 4.80 to 5.60.

With `C=C1C(=O)O[C@H]2[C@H]1CC/C(COC(=O)OC/C1=C/CC[C@@]3(C)O[C@H]3[C@H]3OC(=O)C(=C)[C@@H]3CC1)=C\CC[C@@]1(C)O[C@@H]21` [compound 8, bis-E-(((1aR,7aS,10aS,10bS)-1a-Methyl-8-methylene-9-oxo-1a,2,3,6,7,7a,8,9,10a,10b-decahydrooxireno[2',3':9,10]cyclodeca[1,2-b]furan-5-yl)methyl) carbonate] the pEC50 (M9-ENL1 cells) was 6.30, the “fold more cytotoxic than DMAPT” value ([4]; clonogenic survival, 48 h, at a concentration of 10 μM) was 1 × 10^6 fold and 1.08 × 10^6 fold and the “fold more toxic than compound 7f” value ([4]; colony formation assay, at 10 μM) was 3,564 fold.
